# Measured values: article PMC3353973 (PLoS ONE, 2012)
# Like-named read-outs stand apart in the source and are kept apart here. Numbered stars: 1 amine (or outer) side, 2 acyl side, 3 side chain; on linkers, the order of the positions; unused ones are H or OH. Bridge positions count the residues as written; N and C are the ends. I, II: the chains in the order shown. * marks the point of attachment. X1 = CC(C)CCC[C@@H](C)[C@H]1CC[C@H]2[C@@H]3CC=C4C[C@@H](OCCN(CCNC(=O)CCOCCOCCOCCOCCNC(=O)CCCN5C(=O)CC([*:1])C5=O)CCNC(=O)CCOCCOCCOCCOCCNC(=O)CCCN5C(=O)CC([*:2])C5=O)CC[C@]4(C)[C@H]3CC[C@]12C; Cam = NC(=O)C*
# How the values were obtained:
# [1] = test system: HIV-1 BaL; details: TZM-bl cells; for IC50: read-out: IC50, inhibition of HIV-1 infectivity, strain BaL, R5 strain BaL, moi 4, luciferase read-out after 48 h
# [2] = target: type 3 HPIV envelope glycoproteins mediated fusion (Human parainfluenza 3 virus, UniProt P06828); test: cell-based; type: cell-based, human parainfluenza virus type 3 (HPIV3)
# [3] = target: Nipah virus envelope glycoproteins mediated fusion (Nipah virus, UniProt Q9IH63); test: cell-based; type: cell-based
# [4] = test system: Nipah virus (isolate UMMC1)
# [5] = test system: Nipah virus; set-up: species or system golden hamster (Mesocricetus auratus); details: hamster, in vivo
# Nipah virus envelope glycoproteins mediated fusion, sequence (Q9IH63 110-546 limits assumed): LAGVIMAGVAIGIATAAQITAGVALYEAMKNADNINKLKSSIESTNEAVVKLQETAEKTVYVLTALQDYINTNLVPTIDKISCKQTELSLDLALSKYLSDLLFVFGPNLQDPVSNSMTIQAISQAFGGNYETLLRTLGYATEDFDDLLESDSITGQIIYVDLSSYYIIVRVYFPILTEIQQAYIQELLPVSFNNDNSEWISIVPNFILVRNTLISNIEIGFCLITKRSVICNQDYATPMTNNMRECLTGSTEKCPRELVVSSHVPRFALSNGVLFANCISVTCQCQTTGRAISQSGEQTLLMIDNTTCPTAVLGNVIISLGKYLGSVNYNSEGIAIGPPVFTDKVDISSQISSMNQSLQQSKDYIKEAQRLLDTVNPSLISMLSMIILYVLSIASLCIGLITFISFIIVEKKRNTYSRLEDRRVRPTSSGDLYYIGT
# Nipah virus envelope glycoproteins mediated fusion, sequence (Q9IH63 27-109 partner limits assumed): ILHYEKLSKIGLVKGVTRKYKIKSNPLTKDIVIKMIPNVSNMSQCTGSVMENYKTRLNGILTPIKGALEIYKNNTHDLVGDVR
# type 3 HPIV envelope glycoproteins mediated fusion, sequence (P06828 19-109): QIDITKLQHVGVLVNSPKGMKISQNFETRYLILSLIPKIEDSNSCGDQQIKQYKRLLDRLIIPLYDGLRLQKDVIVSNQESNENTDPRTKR
# type 3 HPIV envelope glycoproteins mediated fusion, sequence (P06828 110-539): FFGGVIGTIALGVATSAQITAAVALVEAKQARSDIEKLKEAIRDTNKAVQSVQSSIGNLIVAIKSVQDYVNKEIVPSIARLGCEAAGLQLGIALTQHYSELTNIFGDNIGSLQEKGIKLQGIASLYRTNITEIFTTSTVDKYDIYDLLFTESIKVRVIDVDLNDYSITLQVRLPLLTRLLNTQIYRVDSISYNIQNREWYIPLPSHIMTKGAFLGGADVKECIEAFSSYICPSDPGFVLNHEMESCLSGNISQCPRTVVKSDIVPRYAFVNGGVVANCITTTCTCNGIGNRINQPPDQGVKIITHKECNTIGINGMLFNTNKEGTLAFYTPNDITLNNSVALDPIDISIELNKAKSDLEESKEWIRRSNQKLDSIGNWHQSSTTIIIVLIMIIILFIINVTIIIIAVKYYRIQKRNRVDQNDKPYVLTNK
compound,measurement,setting,value
CC[C@H](C)[C@H](NC(=O)[C@H](CC(C)C)NC(=O)[C@H](CO)NC(=O)[C@H](Cc1c[nH]cn1)NC(=O)[C@@H](NC(=O)[C@H](CC(C)C)NC(=O)[C@H](CO)NC(=O)[C@@H](NC(=O)[C@H](Cc1ccc(O)cc1)NC(=O)[C@H](CC(N)=O)NC(=O)[C@H](CC(N)=O)NC(=O)[C@@H](NC(=O)[C@H](CCC(=O)O)NC(=O)[C@H](CCCNC(=N)N)NC(=O)[C@H](CC(=O)O)NC(=O)[C@H](Cc1c[nH]c2ccccc12)NC(=O)[C@H](CCC(=O)O)NC(=O)[C@H](CCSC)NC(=O)[C@H](Cc1c[nH]c2ccccc12)NC(C)=O)[C@@H](C)CC)[C@@H](C)O)[C@@H](C)CC)C(=O)N[C@@H](CCC(=O)O)C(=O)N[C@@H](CCC(=O)O)C(=O)N[C@@H](CO)C(=O)N[C@@H](CCC(N)=O)C(=O)N[C@@H](CC(N)=O)C(=O)N[C@@H](CCC(N)=O)C(=O)N[C@@H](CCC(N)=O)C(=O)N[C@@H](CCC(=O)O)C(=O)N[C@@H](CCCCN)C(=O)N[C@@H](CC(N)=O)C(=O)N[C@@H](CCC(=O)O)C(=O)N[C@@H](CCC(N)=O)C(=O)N[C@@H](CCC(=O)O)C(=O)N[C@@H](CC(C)C)C(=O)N[C@@H](CC(C)C)C(=O)NCC(=O)N[C@@H](CO)C(=O)NCC(=O)N[C@@H](CSC1CC(=O)N(CCCC(=O)NCCOCCOCCOCCOCCC(=O)NCCN(CCNC(=O)CCOCCOCCOCCOCCNC(=O)CCCN2C(=O)CC(SC[C@H](NC(=O)CNC(=O)[C@H](CO)NC(=O)CNC(=O)[C@H](CC(C)C)NC(=O)[C@H](CC(C)C)NC(=O)[C@H](CCC(=O)O)NC(=O)[C@H](CCC(N)=O)NC(=O)[C@H](CCC(=O)O)NC(=O)[C@H](CC(N)=O)NC(=O)[C@H](CCCCN)NC(=O)[C@H](CCC(=O)O)NC(=O)[C@H](CCC(N)=O)NC(=O)[C@H](CCC(N)=O)NC(=O)[C@H](CC(N)=O)NC(=O)[C@H](CCC(N)=O)NC(=O)[C@H](CO)NC(=O)[C@H](CCC(=O)O)NC(=O)[C@H](CCC(=O)O)NC(=O)[C@@H](NC(=O)[C@H](CC(C)C)NC(=O)[C@H](CO)NC(=O)[C@H](Cc3c[nH]cn3)NC(=O)[C@@H](NC(=O)[C@H](CC(C)C)NC(=O)[C@H](CO)NC(=O)[C@@H](NC(=O)[C@H](Cc3ccc(O)cc3)NC(=O)[C@H](CC(N)=O)NC(=O)[C@H](CC(N)=O)NC(=O)[C@@H](NC(=O)[C@H](CCC(=O)O)NC(=O)[C@H](CCCNC(=N)N)NC(=O)[C@H](CC(=O)O)NC(=O)[C@H](Cc3c[nH]c4ccccc34)NC(=O)[C@H](CCC(=O)O)NC(=O)[C@H](CCSC)NC(=O)[C@H](Cc3c[nH]c4ccccc34)NC(C)=O)[C@@H](C)CC)[C@@H](C)O)[C@@H](C)CC)[C@@H](C)CC)C(N)=O)C2=O)CCO[C@H]2CC[C@@]3(C)C(=CC[C@H]4[C@@H]5CC[C@H]([C@H](C)CCCC(C)C)[C@@]5(C)CC[C@@H]43)C2)C1=O)C(N)=O (stereo partly shown) [HIV-P4],"Potency increase versus the untagged HR-derived peptide (HIV-P2), strain BaL",[1]; ratio of IC50,"6,000 fold"
same,IC50,[1],0.01 ± 0.01 nM
Ac-VALDPIDISIVLNKAKSDLEESKEWIRRSNGKLDSI-GSGSG-C(PEG4-Chol)-NH2 [HPIV-P3],"Fold more potent than the untagged inhibitor (HPIV-P2), HPIV3 fusion",[2],≈ 10 fold
same,IC50,"[2]; read-out: IC50, inhibition of HPIV3 envelope glycoprotein mediated cell-to-cell fusion",10 to 100 nM
same,IC50,"[3]; read-out: IC50, inhibition of NiV envelope glycoprotein mediated cell-to-cell fusion",1 to 10 nM
same,IC50,"[4]; read-out: IC50, NiV live virus plaque reduction",8.02 ± 0.66 nM
Ac-VALDPIDISIVLNKAKSDLEESKEWIRRSNGKLDSIGSGSGC(Cam)-NH2 [HPIV-P2],IC50,[2],> 100 nM
same,IC50,[3],> 100 nM
I: Ac-VALDPIDISIVLNKAKSDLEESKEWIRRSNGKLDSIGSGSGC-NH2 / II: Ac-VALDPIDISIVLNKAKSDLEESKEWIRRSNGKLDSIGSGSGC-NH2 (linker I:42-II:42 via X1) [HPIV-P4],IC50,[2],< 10 nM
same,"Relative fusion inhibitory potency in words, HPIV3 fusion",[2],considerably more potent than the cholesterol-tagged monomer
same,"Fold more potent than the cholesterol-tagged monomer (HPIV-P3), NiV fusion",[3],≈ 10 fold
same,IC50,[3],< 1 nM
same,Onset of illness / lifespan of NiV-infected hamsters,[5],"onset of the illness was considerably delayed in the other four, leading to a significantly extended lifespan"
same,Survival of NiV-infected hamsters,[5],survival of one of the five animals
same,IC50,[4]; 1 h,4.36 ± 1.3 nM
CC[C@H](C)[C@H](NC(=O)[C@H](CC(C)C)NC(=O)[C@H](CO)NC(=O)[C@H](Cc1c[nH]cn1)NC(=O)[C@@H](NC(=O)[C@H](CC(C)C)NC(=O)[C@H](CO)NC(=O)[C@@H](NC(=O)[C@H](Cc1ccc(O)cc1)NC(=O)[C@H](CC(N)=O)NC(=O)[C@H](CC(N)=O)NC(=O)[C@@H](NC(=O)[C@H](CCC(=O)O)NC(=O)[C@H](CCCNC(=N)N)NC(=O)[C@H](CC(=O)O)NC(=O)[C@H](Cc1c[nH]c2ccccc12)NC(=O)[C@H](CCC(=O)O)NC(=O)[C@H](CCSC)NC(=O)[C@H](Cc1c[nH]c2ccccc12)NC(C)=O)[C@@H](C)CC)[C@@H](C)O)[C@@H](C)CC)C(=O)N[C@@H](CCC(=O)O)C(=O)N[C@@H](CCC(=O)O)C(=O)N[C@@H](CO)C(=O)N[C@@H](CCC(N)=O)C(=O)N[C@@H](CC(N)=O)C(=O)N[C@@H](CCC(N)=O)C(=O)N[C@@H](CCC(N)=O)C(=O)N[C@@H](CCC(=O)O)C(=O)N[C@@H](CCCCN)C(=O)N[C@@H](CC(N)=O)C(=O)N[C@@H](CCC(=O)O)C(=O)N[C@@H](CCC(N)=O)C(=O)N[C@@H](CCC(=O)O)C(=O)N[C@@H](CC(C)C)C(=O)N[C@@H](CC(C)C)C(=O)NCC(=O)N[C@@H](CO)C(=O)NCC(=O)N[C@@H](CSCC(N)=O)C(N)=O [HIV-P2],IC50,[1],60.1 ± 84 nM
